Assay results: patent US20080269251A1, “Substituted Pyrazinone Derivatives as Alpha2C-Adrenoreceptor Antagonists” (priority 2005, published 2008)

Tests used:
[1] = biological target: T1, human adrenergic-α2A receptor (Homo sapiens, UniProt P08913); assay: Radioligand binding experiment for hα2A-adrenergic receptor ([3H]raulwolscine); details: [3H]raulwolscine 1 nM, 60 minutes at 25° C.; for IC50: read-out: h-α2A pIC50 (converted)
T1 construct: expressed in transfected cells; host or cells: CHO cells, stably transfected; membrane preparation
T1 sequence (P08913 1-465): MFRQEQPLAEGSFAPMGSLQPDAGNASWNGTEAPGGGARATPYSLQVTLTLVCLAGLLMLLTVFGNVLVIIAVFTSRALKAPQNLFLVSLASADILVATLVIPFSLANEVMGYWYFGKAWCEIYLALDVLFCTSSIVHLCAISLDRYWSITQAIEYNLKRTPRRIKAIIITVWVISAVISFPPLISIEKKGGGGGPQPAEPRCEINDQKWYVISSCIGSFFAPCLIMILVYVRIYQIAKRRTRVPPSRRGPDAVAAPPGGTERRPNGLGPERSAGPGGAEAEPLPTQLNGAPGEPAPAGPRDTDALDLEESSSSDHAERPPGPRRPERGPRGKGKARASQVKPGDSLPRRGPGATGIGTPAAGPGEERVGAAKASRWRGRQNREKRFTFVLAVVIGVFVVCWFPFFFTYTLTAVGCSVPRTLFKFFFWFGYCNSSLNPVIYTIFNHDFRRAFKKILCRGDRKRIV
Procedure: (§1) The interaction of the compounds of Formula (I) with α2C-adrenoceptor receptors was assessed in in vitro radioligand binding experiments. In general, a low concentration of a radioligand with a high binding affinity for a particular receptor or transporter is incubated with a sample of a tissue preparation enriched in a particular receptor or transporter or with a preparation of cells expressing cloned human receptors in a buffered medium. During the incubation, the radioligand binds to the receptor or transporter. When equilibrium of binding is reached, the receptor bound radioactivity is separated from the non-bound radioactivity, and the receptor- or transporter-bound activity is counted. The interaction of the test compounds with the receptor is assessed in competition binding experiments. Various concentrations of the test compound are added to the incubation mixture containing the receptor- or transporter preparation and the radioligand. The test compound in proportion to its binding affinity and its concentration inhibits binding of the radioligand. The radioligand used for […] receptor binding was [^3H]-raulwolscine.
(§2) CHO cells, stabile transfected with human adrenergic-α2A, -α2B or α2C receptor cDNA, were cultured in Dulbecco's Modified Eagle's Medium (DMEM)/Nutrient mixture Ham's F12 (ratio 1:1)(Gibco, Gent-Belgium) supplemented with 10% heat inactivated fetal calf serum (Life Technologies, Merelbeke-Belgium) and antibiotics (100 IU/ml penicillin G, 100 μg/ml streptomycin sulphate, 110 μg/ml pyruvic acid and 100 μg/ml L-glutamine). One day before collection, cells were induced with 5 mM sodiumbutyrate. Upon 80-90% of confluence, cells were scraped in phosphate buffered saline without Ca^2+ and Mg^2+ and collected by centrifugation at 1500×g for 10 minutes. The cells were homogenised in Tris-HCl 50 mM using an Ultraturrax homogenizer and centrifuged for 10 minutes at 23,500×g. The pellet was washed once by resuspension and rehomogenization and the final pellet was resuspended in Tris-HCl, divided in 1 ml aliquots and stored at −70° C.
(§3) Membranes were thawed and re-homogenized in incubation buffer (glycylglycine 25 mM, pH 8.0). In a total volume of 500 μl, 2-10 μg protein was incubated with [^3H]raulwolscine (NET-722) (New England Nuclear, USA) (1 nM final concentration) with or without competitor for 60 minutes at 25° C. followed by rapid filtration over GF/B filter using a Filtermate196 harvester (Packard, Meriden, Conn.). Filters were rinsed extensively with ice-cold rinsing buffer (Tris-HCl 50 mM pH 7.4). Filter-bound radioactivity was determined by scintillation counting in a Topcount (Packard, Meriden, Conn.) and results were expressed as counts per minute (cpm). Non-specific binding was determined in the presence of 1 μM oxymetazoline for hα2A- and hα2B receptors and 1 μM spiroxatrine for hα2C receptors.
(§4) Data from assays in the presence of compound were calculated as a percentage of total binding measured in the absence of test compound. Inhibition curves, plotting percent of total binding versus the log value of the concentration of the test compound, were automatically generated, and sigmoidal inhibition curves were fitted using non-linear regression. The pIC50 values of test compounds were derived from individual curves.

[2] = biological target: T2, human adrenergic-α2C receptor (Homo sapiens, UniProt P18825); assay: Radioligand binding experiment for hα2C-adrenoceptor ([3H]raulwolscine); details: [3H]raulwolscine 1 nM, 60 minutes at 25° C.; for IC50: read-out: h-α2C pIC50 (converted)
T2 construct: expressed in transfected cells; host or cells: CHO cells, stably transfected; membrane preparation
T2 sequence (P18825 1-462): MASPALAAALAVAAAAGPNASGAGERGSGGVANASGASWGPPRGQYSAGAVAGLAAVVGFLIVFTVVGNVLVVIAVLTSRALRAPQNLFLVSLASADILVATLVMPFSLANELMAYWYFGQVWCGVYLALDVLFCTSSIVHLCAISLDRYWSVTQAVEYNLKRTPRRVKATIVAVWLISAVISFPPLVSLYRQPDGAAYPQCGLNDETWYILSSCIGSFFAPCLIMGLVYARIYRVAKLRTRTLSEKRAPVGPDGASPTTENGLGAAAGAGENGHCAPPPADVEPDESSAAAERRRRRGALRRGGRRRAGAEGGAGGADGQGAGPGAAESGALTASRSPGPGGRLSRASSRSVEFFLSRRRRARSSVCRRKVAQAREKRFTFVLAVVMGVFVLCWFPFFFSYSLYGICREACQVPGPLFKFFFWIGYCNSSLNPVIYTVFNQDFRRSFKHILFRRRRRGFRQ
Procedure: as §1, §2, §3, §4

[3] = biological target: T3, 5HT-transporter (Homo sapiens, UniProt P31645); assay: Binding experiment for the 5HT-transporter ([3H]paroxetine, human platelet membranes); details: [3H]paroxetine 0.5 nM, 60 min at 25° C.; for IC50: read-out: h-5HTT pIC50 (converted)
T3 construct: Human platelet membranes (Oceanix Biosciences Corporation, Hanover, Md., USA) were thawed; tissue Oceanix Biosciences Corporation, Hanover, Md., USA; host or cells: human platelet membranes
Procedure: as §1
Human platelet membranes (Oceanix Biosciences Corporation, Hanover, Md., USA) were thawed, diluted in buffer (Tris-HCl 50 mM, 120 mM NaCl and 5 mM KCl) and quickly (max 3 s) homogenised with an Ultraturrax homogenizer. […] Incubation was stopped by rapid filtration of the incubation mixture over GF/B filters, pre-wetted with 0.1% polyethyleneamine, using a Filtermate196 harvester (Packard, Meriden, Conn.). Filters were rinsed extensively with ice-cold buffer and radioactivity on the filters was counted in a Topcount liquid scintillation counter (Packard, Meriden, Conn.). Data were expressed as cpm. Imipramine (at 1 μM final concentration) was used to determine the non-specific binding.
as §4

T3 sequence (P31645 whole entry): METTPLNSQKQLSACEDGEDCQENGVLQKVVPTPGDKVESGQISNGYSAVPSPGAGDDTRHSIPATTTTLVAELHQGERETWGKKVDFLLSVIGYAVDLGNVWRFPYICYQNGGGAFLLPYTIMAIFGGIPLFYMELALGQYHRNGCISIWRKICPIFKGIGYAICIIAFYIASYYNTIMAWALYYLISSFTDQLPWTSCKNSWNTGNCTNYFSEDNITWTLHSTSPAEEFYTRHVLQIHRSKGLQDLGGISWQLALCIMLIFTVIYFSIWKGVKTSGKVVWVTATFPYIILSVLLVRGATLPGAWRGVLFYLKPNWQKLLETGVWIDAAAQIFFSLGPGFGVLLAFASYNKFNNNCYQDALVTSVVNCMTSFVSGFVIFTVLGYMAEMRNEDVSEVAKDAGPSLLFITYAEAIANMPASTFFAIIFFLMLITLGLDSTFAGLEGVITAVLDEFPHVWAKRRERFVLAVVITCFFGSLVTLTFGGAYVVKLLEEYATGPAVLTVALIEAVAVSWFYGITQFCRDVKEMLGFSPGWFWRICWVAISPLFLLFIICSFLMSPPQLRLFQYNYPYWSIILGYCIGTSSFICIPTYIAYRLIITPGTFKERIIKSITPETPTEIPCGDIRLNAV

| IC50 [1] [nM] | IC50 [2] [nM] | IC50 [3] [nM] | h-α2A pIC50 [1] | h-α2C pIC50 [2] | h-5HTT pIC50 [3] | SMILES |
| --- | --- | --- | --- | --- | --- | --- |
| 316 | 25.1 | 6.31 | – | – | – | CCCC(=O)NCc1ccc(-n2ccnc(NC3CCN(Cc4ccc5ccccc5c4)CC3)c2=O)cc1 [1-24] |
| 631 | 39.8 | 12.6 | – | – | – | CCCC(=O)NCc1ccc(-n2ccnc(NC3CCN(Cc4ccc5ccccc5c4)CC3)c2=O)cc1OC [1-25] |
| 631 | 63.1 | 20 | – | – | – | CC(CC(=O)NCc1ccc(-n2ccnc(NC3CCN(Cc4ccc5ccccc5c4)CC3)c2=O)cc1)CC(C)(C)C (stereo not drawn) [1-27] |
| – | – | – | 6.3 | 7.5 | 8.1 | O=C(CC1CCCC1)NCc1ccc(-n2ccnc(NC3CCN(Cc4ccc5ccccc5c4)CC3)c2=O)cc1 [1-28] |
| 398 | 39.8 | 20 | – | – | – | CCCC(=O)N(Cc1ccc(-n2ccnc(NC3CCN(Cc4ccc5ccccc5c4)CC3)c2=O)cc1)C(=O)CCC [1-29] |
| 316 | 31.6 | 15.8 | – | – | – | COCCC(=O)NCc1ccc(-n2ccnc(NC3CCN(Cc4ccc5ccccc5c4)CC3)c2=O)cc1 [1-30] |
| – | – | – | 6.5 | 7.5 | 8.1 | C=CCCC(=O)NCc1ccc(-n2ccnc(NC3CCN(Cc4ccc5ccccc5c4)CC3)c2=O)cc1 [1-31] |
| 200 | 12.6 | 31.6 | – | – | – | CC(C)(C)OC(=O)NCCCn1ccnc(NC2CCN(Cc3ccc4ccccc4c3)CC2)c1=O [1-32] |
| 501 | 79.4 | 25.1 | – | – | – | CC(C)(C)OC(=O)NCc1ccc(-n2ccnc(NC3CCN(Cc4ccc5ccccc5c4)CC3)c2=O)cc1 [1-33] |
| 251 | 100 | 79.4 | – | – | – | CC(C)(C)OC(=O)NCc1ccc(Cn2ccnc(NC3CCN(Cc4ccc5ccccc5c4)CC3)c2=O)cc1 [1-34] |
| 316 | 25.1 | 39.8 | – | – | – | CN(CCCn1ccnc(NC2CCN(Cc3ccc4ccccc4c3)CC2)c1=O)C(=O)OC(C)(C)C [1-35] |
| 501 | 50.1 | 158 | – | – | – | COC(=O)CN(C)Cc1ccc(-n2ccnc(NC3CCN(Cc4ccc5ccccc5c4)CC3)c2=O)cc1 [1-36] |
| 631 | 39.8 | 12.6 | – | – | – | COC(=O)CCCC(=O)NCc1ccc(-n2ccnc(NC3CCN(Cc4ccc5ccccc5c4)CC3)c2=O)cc1 [1-37] |
| 398 | 63.1 | 1580 | – | – | – | C#CCN(C)C(=O)Cn1ccnc(NC2CCN(Cc3ccc4ccccc4c3)CC2)c1=O [1-38] |
| 79.4 | 15.8 | 63.1 | – | – | – | CN(C)CCN(C)Cc1ccc(-n2ccnc(NC3CCN(Cc4ccc5ccccc5c4)CC3)c2=O)cc1 [1-39] |
| 1260 | 100 | 50.1 | – | – | – | CCCNC(=O)NCc1ccc(-n2ccnc(NC3CCN(Cc4ccc5ccccc5c4)CC3)c2=O)cc1 [1-40] |

| IC50 [1] [nM] | IC50 [2] [nM] | IC50 [3] [nM] | h-α2A pIC50 [1] | h-α2C pIC50 [2] | h-5HTT pIC50 [3] | SMILES |
| --- | --- | --- | --- | --- | --- | --- |
| – | – | – | 6.2 | 7.2 | 7.2 | O=C(NCc1ccc(-n2ccnc(NC3CCN(Cc4ccc5ccccc5c4)CC3)c2=O)cc1)NCC1CCCCC1 [1-41] |
| 501 | 31.6 | 5.01 | – | – | – | O=C(Cc1ccccc1)NCc1ccc(-n2ccnc(NC3CCN(Cc4ccc5ccccc5c4)CC3)c2=O)cc1 [1-42] |
| 251 | 39.8 | 6.31 | – | – | – | O=C(CCc1ccccc1)NCc1ccc(-n2ccnc(NC3CCN(Cc4ccc5ccccc5c4)CC3)c2=O)cc1 [1-43] |
| 63.1 | 12.6 | 7.94 | – | – | – | CN(C)CCNC(=O)NCc1ccc(-n2ccnc(NC3CCN(Cc4ccc5ccccc5c4)CC3)c2=O)cc1 [1-44] |
| 398 | 31.6 | 25.1 | – | – | – | COCCNC(=O)NCc1ccc(-n2ccnc(NC3CCN(Cc4ccc5ccccc5c4)CC3)c2=O)cc1 [1-45] |
| 501 | 39.8 | 63.1 | – | – | – | COCCCNC(=O)NCc1ccc(-n2ccnc(NC3CCN(Cc4ccc5ccccc5c4)CC3)c2=O)cc1 [1-46] |
| – | – | – | 6.3 | 7.5 | 7.6 | COC(=O)CCNC(=O)NCc1ccc(-n2ccnc(NC3CCN(Cc4ccc5ccccc5c4)CC3)c2=O)cc1 [1-47] |
| 316 | 39.8 | 10 | – | – | – | O=C(NCc1ccccc1)NCc1ccc(-n2ccnc(NC3CCN(Cc4ccc5ccccc5c4)CC3)c2=O)cc1 [1-48] |
| 501 | 39.8 | 39.8 | – | – | – | Cc1ccc(CNC(=O)NCc2ccc(-n3ccnc(NC4CCN(Cc5ccc6ccccc6c5)CC4)c3=O)cc2)cc1F [1-49] |
| 1260 | 200 | 63.1 | – | – | – | O=C(NCc1ccc(-n2ccnc(NC3CCN(Cc4ccc5ccccc5c4)CC3)c2=O)cc1)NCc1cc(F)cc(C(F)(F)F)c1 [1-50] |
| – | – | – | 6.4 | 7.1 | 7.8 | O=C(NCCCc1ccccc1)NCc1ccc(-n2ccnc(NC3CCN(Cc4ccc5ccccc5c4)CC3)c2=O)cc1 [1-51] |
| – | – | – | 6.3 | 7.2 | 8.1 | O=C(NCc1ccc(-n2ccnc(NC3CCN(Cc4ccc5ccccc5c4)CC3)c2=O)cc1)Nc1ccccc1 [1-52] |
| 631 | 20 | 7.94 | – | – | – | O=C(NCCCn1ccnc(NC2CCN(Cc3ccc4ccccc4c3)CC2)c1=O)Nc1ccccc1 [1-53] |
| – | – | – | 6.0 | 6.7 | 6.8 | O=C(NCc1ccc(-n2ccnc(NC3CCN(Cc4ccc5ccccc5c4)CC3)c2=O)cc1)Nc1cc(Cl)ccc1Cl [1-54] |
| 631 | 100 | 63.1 | – | – | – | CCOC(=O)N1CCC(NC(=O)NCc2ccc(-n3ccnc(NC4CCN(Cc5ccc6ccccc6c5)CC4)c3=O)cc2)CC1 [1-55] |
